Results from article PMC6480224, “Synthesis of Pyridine-Dicarboxamide-Cyclohexanone Derivatives: Anticancer and α-Glucosidase Inhibitory Activities and In Silico Study” (Molecules, 2019).
Read-outs that look alike come from different tables or passages of the source.

Columns and labels:
[1] = test system: HepG2 liver cancer cells; test: MTT cytotoxicity assay, HepG2; type: cell-based; settings: mean ± SD of three experiments, NA = no or negligible activity in initial crystal violet screening
Protocol: (§1) The cytotoxic activity of the new synthesized compounds was tested in different mammalian cancer cells, breast cancer (+ve ER) (MCF-7), breast cancer (−ve ER) (MDA-MB-231), tongue (oral cancer) (SAS), prostate cancer (PC-3), colorectal cancer (HCT-116) and hepatocellular carcinoma (HuH-7 and HepG-2). The cell lines were obtained from the American Type Culture Collection (ATCC). The cells were cultivated at 37 °C and 5% CO2 in DMEM (Lonza) medium supplemented with 10% fetal bovine serum (Lonza), 100 IU/mLpenicillin and 100 µg/mL streptomycin (Lonza). Cisplatin was used as a positive control and was obtained from Sigma-Aldrich. The synthesized compounds were solubilized in DMSO and stored at −20 °C. For the initial screening, 0.5% crystal violet was used. The viability of the cells were determined by using the MTT reagent.
(§2) “The cells were seeded in a 96-well plate and serial dilutions of the tested compounds or cisplatin was added after overnight incubation of the cells at 37 °C and 5% CO2. DMSO was used as a negative control (0.1%). After that, MTT (5 mg/mL PBS) was added after 48 hours of incubation. The formazan crystals were solubilized by the acidified SDS solution. The absorbance was recorded at 570 nm by Biotech ELx-800™ plate reader (Winooski, VT, USA). The viability assay was performed 3 times and the standard deviation was determined (±). IC50 was calculated as the concentration that causes 50% inhibition of cell growth. The selectivity index was calculated as previously reported” [26, 27].

[2] = test system: seven cancer cell lines (MCF-7, MDA-MB-231, SAS, PC-3, HCT-116, HuH-7, HepG2); test: Anticancer screening against the panel of seven cancer cell lines (crystal violet initial screening); type: cell-based; settings: concentration of 50 μM
Protocol: To evaluate the anticancer activity of the 13 newly synthesized compounds, we screened their activities at a concentration of 50 μM against seven cancer cell lines, including breast cancer (positive [MCF-7] and negative [MDA-MB-231] for estrogen receptor expression), tongue carcinoma (SAS), prostate cancer (PC-3), colorectal cancer (HCT-116) and liver cancer (HuH-7 and HepG2) cell lines. […] The 3-(4,5-dimethylthiazol-2-yl)-2,5-diphenyltetrazolium bromide (MTT) assay was performed to determine the concentration of the active compounds needed to kill 50% of cells.
as §1

[3] = test system: MCF-7 breast cancer (+ve ER) cells; test: MTT cytotoxicity assay, MCF-7; type: cell-based; settings: mean ± SD of three experiments, NA = no or negligible activity in initial crystal violet screening
Protocol: as §1, §2

[4] = test system: MDA-MB-231 breast cancer (−ve ER) cells; test: MTT cytotoxicity assay, MDA-MB-231; type: cell-based; settings: mean ± SD of three experiments, NA = no or negligible activity in initial crystal violet screening
Protocol: as §1, §2

[5] = test system: SAS tongue carcinoma (oral cancer) cells; test: MTT cytotoxicity assay, SAS; type: cell-based; settings: 48 h, mean ± SD of three experiments, NA = no or negligible activity in initial crystal violet screening
Protocol: as §1, §2

[6] = test system: HuH-7 liver cancer cells; test: MTT cytotoxicity assay, HuH-7; type: cell-based; settings: mean ± SD of three experiments, NA = no or negligible activity in initial crystal violet screening
Protocol: as §1
(§3) “The cells were seeded in a 96-well plate and serial dilutions of the tested compounds or cisplatin was added after overnight incubation of the cells at 37 °C and 5% CO2. DMSO was used as a negative control (0.1%). After that, MTT (5 mg/mL PBS) was added after 48 hours of incubation. […] The absorbance was recorded at 570 nm by Biotech ELx-800™ plate reader (Winooski, VT, USA). The viability assay was performed 3 times and the standard deviation was determined (±). […] The selectivity index was calculated as previously reported” [26, 27].

[7] = test system: HCT-116 colorectal cancer cells; test: MTT cytotoxicity assay, HCT-116; type: cell-based; settings: mean ± SD of three experiments, NA = no or negligible activity in initial crystal violet screening, read-out: IC50 Colon HCT-116
Protocol: as §1, §3

[8] = test system: PC-3 prostate cancer cells; test: MTT cytotoxicity assay, PC-3; type: cell-based; settings: 48 h, mean ± SD of three experiments, NA = no or negligible activity in initial crystal violet screening
Protocol: as §1, §2

In the case of `O=C1CC(c2ccc(Cl)cc2Cl)C(C(=O)Nc2ccccn2)(C(=O)Nc2ccccn2)C(c2ccc(Cl)cc2Cl)C1` (stereo not drawn) [Compound 3d, 2,6-bis(2,4-Dichlorophenyl)-4-oxo-N,N′-di(pyridin-2-yl)cyclohexane-1,1-dicarboxamide], the melting point is reported as 210 to 211 °C, the IC50 ([1]; Homo sapiens, HepG2, 48 h) is reported as over 50 µM and the “anticancer activity in initial screening” value [2] is reported as “showed different levels of anticancer activities”. It also gave an IC50 ([3]; Homo sapiens, MCF7, 48 h) of over 50 µM and an IC50 ([4]; Homo sapiens, MDA-MB-231, 48 h) of 18 ± 0.87 µM.

In the case of `N.N.[Cl][Pt][Cl]` [Cisplatin, reference compound], the IC50 ([1]; 48 h) is reported as 10 ± 0.65 µM, the IC50 [5] is reported as 4.5 ± 0.34 µM and the IC50 ([6]; 48 h) is reported as 14.7 ± 0.5 µM. The IC50 ([3]; 48 h) was 9 ± 2.43 µM, the IC50 ([7]; 48 h) was 8 ± 0.76 µM and the IC50 ([4]; 48 h) was 15 ± 0.71 µM. It also gave an IC50 [8] of 12 ± 1.25 µM.

Work on `O=C1CC(c2ccc(F)cc2)C(C(=O)Nc2ccccn2)(C(=O)Nc2ccccn2)C(c2ccc(F)cc2)C1` (stereo not drawn) [Compound 3m, 2,6-bis(4-Fluorophenyl)-4-oxo-N,N′-di(pyridin-2-yl)cyclohexane-1,1-dicarboxamide] yielded a melting point of 245 to 246 °C.

With `O=C1CC(c2ccc(Br)cc2)C(C(=O)Nc2ccccn2)(C(=O)Nc2ccccn2)C(c2ccc(Br)cc2)C1` (stereo not drawn) [Compound 3e, 2,6-bis(4-Bromorophenyl)-4-oxo-N,N′-di(pyridin-2-yl)cyclohexane-1,1-dicarboxamide] the IC50 ([1]; 48 h) was 8 ± 0.96 µM, the “anticancer activity in initial screening” value [2] was “showed different levels of anticancer activities” and the IC50 ([3]; 48 h) was 12 ± 0.54 µM. It also gave an IC50 ([4]; 48 h) of 5 ± 0.5 µM.

`Cc1ccc(C2CC(=O)CC(c3ccc(C)cc3)C2(C(=O)Nc2ccc(Cl)cn2)C(=O)Nc2ccc(Cl)cn2)cc1` (stereo not drawn) [Compound 3b, N,N′-bis(5-Chloropyridin-2-yl)-4-oxo-2,6-di-p-tolylcyclohexane-1,1-dicarboxamide] gave a melting point of 145 to 146 °C.

With `O=C1CC(c2ccccc2)C(C(=O)Nc2ccccn2)(C(=O)Nc2ccccn2)C(c2ccccc2)C1` (stereo not drawn) [Compound 3a, 4-Oxo-2,6-diphenyl-N,N′-di(pyridin-2-yl)cyclohexane-1,1-dicarboxamide] the melting point was 248 to 249 °C.

For `O=C1CC(c2ccc(C(F)(F)F)cc2)C(C(=O)Nc2ccc(Cl)cn2)(C(=O)Nc2ccc(Cl)cn2)C(c2ccc(C(F)(F)F)cc2)C1` (stereo not drawn) [Compound 3l, N,N′-bis(5-Chloropyridin-2-yl)-4-oxo-2,6-bis(4-(trifluoromethyl)phenyl)cyclohex-ane-1,1-dicarboxamide], the melting point was 138 to 139 °C, the IC50 ([1]; Homo sapiens, HepG2, 48 h) was 25 ± 0.38 µM and the “anticancer activity in initial screening” value [2] was “showed different levels of anticancer activities”. For the same compound, the IC50 [5] was 9 ± 0.38 µM, the IC50 ([6]; Homo sapiens, Huh-7, 48 h) was 4.5 ± 0.3 µM and the IC50 ([3]; Homo sapiens, MCF7, 48 h) was 18 ± 1.71 µM. It also gave an IC50 ([7]; Homo sapiens, HCT-116, 48 h) of 6 ± 0.78 µM, an IC50 ([4]; Homo sapiens, MDA-MB-231, 48 h) of 5 ± 0.25 µM and an IC50 [8] of over 50 µM.

Work on `O=C1CC(c2cccc([N+](=O)[O-])c2)C(C(=O)Nc2ccc(Cl)cn2)(C(=O)Nc2ccc(Cl)cn2)C(c2cccc([N+](=O)[O-])c2)C1` (stereo not drawn) [Compound 3f, N,N′-bis(5-Chloropyridin-2-yl)-2,6-bis(3-nitrophenyl)-4-oxocyclohexane-1,1-dicarboxamide] yielded a melting point of 174 to 175 °C.

For `O=C1CC(c2ccc(Cl)cc2)C(C(=O)Nc2ccccn2)(C(=O)Nc2ccccn2)C(c2ccc(Cl)cc2)C1` (stereo not drawn) [Compound 3c, 2,6-bis(4-Chlorophenyl)-4-oxo-N,N′-di(pyridin-2-yl)cyclohexane-1,1-dicarboxamide], the melting point was 231 to 232 °C, the IC50 ([1]; Homo sapiens, HepG2, 48 h) was 8 ± 0.89 µM and the “anticancer activity in initial screening” value [2] was “showed different levels of anticancer activities”. The IC50 [5] was 15 ± 1.3 µM, the IC50 ([3]; Homo sapiens, MCF7, 48 h) was 10 ± 0.62 µM and the IC50 ([4]; Homo sapiens, MDA-MB-231, 48 h) was 7 ± 1.12 µM. The IC50 [8] was 25 ± 1.42 µM.

Work on `O=C1CC(c2ccco2)C(C(=O)Nc2ccc(Cl)cn2)(C(=O)Nc2ccc(Cl)cn2)C(c2ccco2)C1` (stereo not drawn) [Compound 3j, N,N′-bis(5-Chloropyridin-2-yl)-2,6-di(furan-2-yl)-4-oxocyclohexane-1,1-dicarboxamide] yielded a melting point of 160 to 161 °C, an IC50 ([1]; Homo sapiens, HepG2, 48 h) of over 50 µM and an IC50 ([3]; Homo sapiens, MCF7, 48 h) of 50 ± 0.78 µM. The IC50 ([4]; Homo sapiens, MDA-MB-231, 48 h) was 45 ± 3 µM.

Compound `O=C1CC(c2ccc3ccccc3c2)C(C(=O)Nc2ccc(Cl)cn2)(C(=O)Nc2ccc(Cl)cn2)C(c2ccc3ccccc3c2)C1` (stereo not drawn) [Compound 3h, N,N′-bis(5-Chloropyridin-2-yl)-2,6-di(naphthalen-2-yl)-4-oxocyclohexane-1,1-dicarboxamide] has a melting point of 114 to 115 °C.

For `O=C1CC(c2cccc(Br)c2)C(C(=O)Nc2ccc(Cl)cn2)(C(=O)Nc2ccc(Cl)cn2)C(c2cccc(Br)c2)C1` (stereo not drawn) [Compound 3k, 2,6-bis(3-Bromophenyl)-N,N′-bis(5-chloropyridin-2-yl)-4-oxocyclohexane-1,1-dicarboxamide], the melting point was 213 to 214 °C and the “anticancer activity in initial screening” value [2] was “showed different levels of anticancer activities”.

Compound `O=C1CC(c2cccs2)C(C(=O)Nc2ccc(Cl)cn2)(C(=O)Nc2ccc(Cl)cn2)C(c2cccs2)C1` (stereo not drawn) [Compound 3i, N,N′-bis(5-Chloropyridin-2-yl)-4-oxo-2,6-di(thiophen-2-yl)cyclohexane-1,1-dicarboxamide] has a melting point of 165 to 166 °C.

Compound `COc1ccc(C2CC(=O)CC(c3ccc(OC)cc3)C2(C(=O)Nc2ccc(Cl)cn2)C(=O)Nc2ccc(Cl)cn2)cc1` (stereo not drawn) [Compound 3g, N,N′-bis(5-Chloropyridin-2-yl)-2,6-bis(4-methoxyphenyl)-4-oxocyclohexane-1,1-dicarboxamide] has a melting point of 203 to 204 °C.
